The text below walks through data of paper PMC8580996, “2-Oxoglutarate derivatives can selectively enhance or inhibit the activity of human oxygenases” (Nature Communications, 2021).

One assay has as its target T1, AspH (Homo sapiens, UniProt Q12797).
T1 construct: the tetratricopeptide repeat domain (His6-AspH315-758), was produced and purified as previously reported; made in house
T1 sequence (Q12797 315-758): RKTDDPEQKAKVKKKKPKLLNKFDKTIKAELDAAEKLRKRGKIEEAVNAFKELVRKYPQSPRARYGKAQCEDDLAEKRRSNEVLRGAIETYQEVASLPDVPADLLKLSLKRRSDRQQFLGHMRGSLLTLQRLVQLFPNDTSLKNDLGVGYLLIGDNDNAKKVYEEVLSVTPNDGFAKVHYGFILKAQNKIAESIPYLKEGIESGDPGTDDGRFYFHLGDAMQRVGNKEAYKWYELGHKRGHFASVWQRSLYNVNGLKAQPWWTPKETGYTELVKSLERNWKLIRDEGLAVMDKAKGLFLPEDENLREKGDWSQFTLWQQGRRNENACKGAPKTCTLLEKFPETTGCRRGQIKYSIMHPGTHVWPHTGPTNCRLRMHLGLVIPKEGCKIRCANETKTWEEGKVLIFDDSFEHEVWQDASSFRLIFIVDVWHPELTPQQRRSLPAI
More on the design: method as in PMID 34163896. To be noted: hFX-CP101–119 substrate, 330 μM 2OG or 2OG derivative, t = 15 min; cited from earlier work.

Assay [1] concerns the target T2, FIH (Homo sapiens, UniProt Q9NWT6). In words: SPE-MS FIH inhibition assay. For IC50 FIH: 0.15 µM FIH. In kind it is biochemical. The essentials:
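Compounds in an 11-point, about threefold series (top 100 μM, 0.5% DMSO) were preincubated 15 min at 20 °C with 0.3 μM His6-FIH enzyme mixture. They were then mixed with substrate mixture containing 10.0 μM HIF-1α788–822, 200 μM ascorbate, 20.0 μM 2OG and 20.0 μM Fe(II) in 50 mM Tris/50 mM NaCl pH 7.5. After 15 min, formic acid quench and SPE-MS gave % hydroxylation.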

Assay [2] has as its target T2, FIH. The experiment in a line: Competition assay in a single reaction vessel, FIH-catalyzed hydroxylation (SPE-MS). In kind it is biochemical. The protocol: Mean of three independent runs (n = 3; mean ± SD). […] Cosubstrates: a 20 μM 2OG; b 20 μM 2OG; c 20 μM 1; d 20 μM 12; e 20 μM 12 and 100 μM 2OG; f 100 μM 14. Source data are provided as a Source Data file.
Mean of three independent runs (n = 3; mean ± SD). […] Source data are provided as a Source Data file.
Peptide turnover was monitored by SPE-MS using the same instrument configuration (with the exception that the peptides were eluted from the SPE cartridge with 0.1%v/v aqueous formic acid in 80/20 v/v acetonitrile/water) as described above.
FIH and AspH-catalyzed peptide hydroxylations were analyzed simultaneously using SPE-MS as described in the
Methods section; competition experiments were performed in the same reaction vessel using equimolar 2OG
oxygenase and substrate concentrations. […]
Source data are provided as a Source Data file.
FIH and AspH-catalyzed peptide hydroxylations were analyzed simultaneously using SPE-
MS as described in the Methods section; competition experiments were performed in the same reaction vessel
using equimolar 2OG oxygenase and substrate concentrations. […]
2OG, 100 μM 14. Source data are provided as a Source Data file.

Setting [3] is: source data of Table 3, single independent replicates, read-out: FIH IC50, independent replicate.

“And” between values parts separate entries of the source, which are not always exact repeats. Identical values can stand only once. Like-named read-outs stand apart in the source and are kept apart here.

T2 sequence (Q9NWT6 whole entry): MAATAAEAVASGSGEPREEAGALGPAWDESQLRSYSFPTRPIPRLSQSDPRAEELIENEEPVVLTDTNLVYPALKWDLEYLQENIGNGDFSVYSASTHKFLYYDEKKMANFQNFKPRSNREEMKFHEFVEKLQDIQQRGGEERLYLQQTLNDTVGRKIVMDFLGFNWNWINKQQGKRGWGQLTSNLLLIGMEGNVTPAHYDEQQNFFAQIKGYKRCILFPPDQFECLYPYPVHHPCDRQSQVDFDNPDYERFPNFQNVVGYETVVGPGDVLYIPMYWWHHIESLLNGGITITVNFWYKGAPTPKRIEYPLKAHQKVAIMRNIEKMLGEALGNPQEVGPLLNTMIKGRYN

In the case of `CCC(CC(=O)C(=O)O)C(=O)O` (stereo not shown) [compound 14, 4-ethyl-2OG], the “AspH activity, %-substrate conversion” value on AspH is listed as under 1%. Besides, the IC50 on FIH [1] ([…] FIH, 5.0 μM HIF-1α788-822, 10 μM 2OG, mean of two runs, read-out: IC50 FIH) is 19.3 µM; at FIH [1] (setting [3]), 27.8 µM and 13.3 µM and 16.6 µM.
In the case of `O=C(O)C(=O)CC(CCCc1ccccc1)C(=O)O` (stereo not shown) [compound 18, 4-(3-phenylpropyl)-2OG], the “AspH activity, %-substrate conversion” value on AspH is under 1%. The half-maximal inhibitory concentration (IC50) on FIH [1] (setting [3]) was 0.864 µM and 0.923 µM.
For `O=C(O)C(=O)C1CCC(C(=O)O)C1` (stereo not shown) [compound 22, 3-(carboxycarbonyl)cyclopentane-1-carboxylic acid], the “AspH activity, %-substrate conversion” value at AspH is on record as about 15%. Further, at FIH [1] ([…] FIH, 5.0 μM HIF-1α788-822, 10 μM 2OG, mean of two runs), the “IC50 FIH” value was “inactive”.
With `O=C(O)CCC(=O)C(=O)O` [2OG, 2-Oxoglutarate], the “substrate hydroxylation (% conversion)” value is 14.1515 and 16.7791 and 11.5447 on FIH [2] (Fig 2a, 20 μM 2OG, CA1-20, 0 min); 47.9481 and 47.8258 and 38.5441 on FIH [2] (Fig 2a, 20 μM 2OG, CA1-20, 0.703167 min); 78.9866 and 77.8293 and 70.1307 at FIH [2] (Fig 2a, 20 μM 2OG, CA1-20, 2.10933 min); 85.5974 and 84.4447 and 78.5645 on FIH [2] (Fig 2a, 20 μM 2OG, CA1-20, 2.8135 min); 89.6698 and 89.0396 and 84.1833 at FIH [2] (Fig 2a, 20 μM 2OG, CA1-20, 3.51633 min); 92.631 and 91.777 and 88.07 at FIH [2] (Fig 2a, 20 μM 2OG, CA1-20, 4.22 min). The “substrate hydroxylation (% conversion)” value at FIH [2] (Fig 2a, 20 μM 2OG, CA1-20, 4.92317 min) is 94.369 and 93.7454 and 90.6935; on FIH [2] (Fig 2a, 20 μM 2OG, CA1-20, 5.62833 min), 95.7579 and 95.0911 and 92.7125; at FIH [2] (Fig 2a, 20 μM 2OG, CA1-20, 6.33133 min), 97.057 and 96.0828 and 94.1188; at FIH [2] (Fig 2a, 20 μM 2OG, CA1-20, 7.03583 min) it was 97.7828 and 96.6689 and 95.1866; on FIH [2] (Fig 2a, 20 μM 2OG, CA1-20, 7.73917 min), 98.8257 and 97.1902 and 95.7428; at FIH [2] (Fig 2a, 20 μM 2OG, CA1-20, 8.444 min), 99.4037 and 97.3768 and 96.3319. Also, the “substrate hydroxylation (% conversion)” value at FIH [2] (Fig 2a, 20 μM 2OG, CA1-20, 9.1485 min) is 99.7225 and 97.4249 and 96.6951; at FIH [2] (Fig 2a, 20 μM 2OG, CA1-20, 9.853 min) it was 99.5637 and 97.3528 and 97.1366; on FIH [2] (Fig 2a, 20 μM 2OG, CA1-20, 10.558 min), 100 and 97.2891 and 96.8671; at FIH [2] (Fig 2a, 20 μM 2OG, CA1-20, 11.2623 min) it was 100 and 94.1661; on FIH [2] (Fig 2a, 20 μM 2OG, HIF-1a788-822, 0.703167 min), 6.1581 and 8.558 and 6.1761; at FIH [2] (Fig 2a, 20 μM 2OG, HIF-1a788-822, 2.10933 min), 16.8685 and 19.2149 and 14.7272. The “substrate hydroxylation (% conversion)” value on FIH [2] (Fig 2a, 20 μM 2OG, HIF-1a788-822, 2.8135 min) was 22.0351 and 24.2966 and 18.9489; at FIH [2] (Fig 2a, 20 μM 2OG, HIF-1a788-822, 3.51633 min) it was 26.9176 and 28.8009 and 23.0891; at FIH [2] (Fig 2a, 20 μM 2OG, HIF-1a788-822, 4.22 min), 30.085 and 33.3713 and 26.7919; on FIH [2] (Fig 2a, 20 μM 2OG, HIF-1a788-822, 4.92317 min) it was 34.7093 and 37.5052 and 30.4684; on FIH [2] (Fig 2a, 20 μM 2OG, HIF-1a788-822, 5.62833 min), 37.941 and 41.581 and 34.0768; on FIH [2] (Fig 2a, 20 μM 2OG, HIF-1a788-822, 6.33133 min), 40.9748 and 45.5421 and 37.689. Moreover, the “substrate hydroxylation (% conversion)” value was 44.2421 and 48.7776 and 41.0727 at FIH [2] (Fig 2a, 20 μM 2OG, HIF-1a788-822, 7.03583 min); 46.5287 and 52.1147 and 44.2887 at FIH [2] (Fig 2a, 20 μM 2OG, HIF-1a788-822, 7.73917 min); 50.2071 and 55.1688 and 46.8395 on FIH [2] (Fig 2a, 20 μM 2OG, HIF-1a788-822, 8.444 min); 52.5573 and 57.8623 and 50.003 on FIH [2] (Fig 2a, 20 μM 2OG, HIF-1a788-822, 9.1485 min); 55.5664 and 60.5077 and 52.8227 at FIH [2] (Fig 2a, 20 μM 2OG, HIF-1a788-822, 9.853 min); 57.4116 and 62.9095 and 55.0617 on FIH [2] (Fig 2a, 20 μM 2OG, HIF-1a788-822, 10.558 min). Moreover, the “substrate hydroxylation (% conversion)” value is 59.0832 and 64.3072 and 56.3348 at FIH [2] (Fig 2a, 20 μM 2OG, HIF-1a788-822, 11.2623 min); 58.5759 and 53.8983 on FIH [2] (Fig 2b, 20 μM 2OG, FIH, 1.19933 min). The “conversion of CA1–20” value at FIH [2] (Fig 2a, 20 μM 2OG, both FIH substrates in one vessel, after 5 min) is over 90%. In addition, the “conversion of HIF-1α788–822” value on FIH [2] (Fig 2a, 20 μM 2OG, both FIH substrates in one vessel, after 12 min) was ~ 60%. For the same molecule, the “FIH-catalyzed CA1–20 hydroxylation” value on FIH [2] (Fig 2b, 20 μM 2OG, after 4 min) is over 80%. Besides, the FIH-catalyzed substrate turnover at FIH [2] (Fig 4a, 0.5 mM 2OG, absence of 13, after 4 min) is ~ 80%.

What is called IC50 is the point on the concentration scale where inhibition reaches its midpoint.
